Where two headings read alike, the source gives them in different places.
Assays:
[1] = system: Trypanosma brucei brucei; assay: Antitrypanosoma action in 24 h culture, minimum effective concentration, with or without glycerin; type: cell-based, Trypanosoma brucei brucei; settings: for Minimum Effective Concentration, Presence of Glycerin: 5 mM of glycerin; for minimal effective concentration: Trypanosoma brucei, read-out: Minimum Effective Concentration, Absence of Glycerin
Method: With the use of a 96-well culture plate, each agent was adjusted to 10 mM with DMSO, and 5×10^5/ml of Trypanosma brucei brucei was added and cultured at 37° C. for 24 hours, and the minimum effective concentration was calculated.
The above described culture was conducted with the addition of 5 mM of glycerin under the same conditions as described above and observed.

[2] = target: cyanide resistant quinol enzyme of Trypanosoma (Trypanosoma brucei brucei, UniProt Q26710); assay: Respiration inhibition on the cyanide resistant quinol enzyme of Trypanosoma (recombinant enzyme); type: biochemical
Excerpt: Antitrypanosoma Action (IC50)
The respiration inhibition effect of the novel phenol derivatives on the cyanide resistant quinol enzyme of Trypanosoma was examined with the use of a recombinant enzyme.

[3] = system: glycerol-3-phosphate-dependent respiration in the mitochondrial specimen of Trypanosoma brucei brucei; assay: Inhibition of glycerol-3-phosphate-dependent respiration in mitochondrial specimen; type: biochemical; settings: mitochondrial specimen from T. brucei brucei multiplied in rat bloodstream
Excerpt: The inhibition effect of the novel halogen-containing phenol derivatives having an alkyl side chain on the glycerol-3-phosphate-dependent respiration in the mitochondrial specimen prepared by mechanically crushing the bodies of Trypanosoma brucei brucei multiplied in the rat bloodstream with glass beads and subjecting the crushed bodies to centrifugal fractionation was examined.

[4] = system: glycerol-3-phosphate-dependent respiration in the mitochondrial specimen of Trypanosoma brucei brucei; settings: earlier filing JP H09-165332; cited from earlier work
[5] = 5×10^5/ml, 37° C., 24 hours, no glycerin

cyanide resistant quinol enzyme of Trypanosoma, sequence (Q26710 whole entry): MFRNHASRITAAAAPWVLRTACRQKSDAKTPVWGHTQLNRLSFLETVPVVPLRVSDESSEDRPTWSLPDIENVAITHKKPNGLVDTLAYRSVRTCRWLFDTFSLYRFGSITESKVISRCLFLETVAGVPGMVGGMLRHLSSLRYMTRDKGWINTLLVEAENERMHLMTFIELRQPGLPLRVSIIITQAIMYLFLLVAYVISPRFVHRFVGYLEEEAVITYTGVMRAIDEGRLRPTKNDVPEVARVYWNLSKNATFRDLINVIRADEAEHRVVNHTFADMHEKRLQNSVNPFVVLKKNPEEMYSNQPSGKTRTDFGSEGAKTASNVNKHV

Q: For `CCCCCCCCCC(O)c1c(O)c(Cl)c(C)c(C=O)c1O` (centres unmarked) [196-10, 5-Chloro-2,4-dihydroxy-3-(1-hydroxydecyl)-6-methylbenzaldehyde], which “Minimum Effective Concentration, Presence of Glycerin” value (“Minimum Effective Concentration” below) ([1]; 5×10^5/ml, 37° C., 24 hours) is on record?
A: Its value is 0.8 µM.

Q: And the minimal effective concentration [1, 5]?
A: Its minimal effective concentration is 100 µM.

Q: What about the IC50 [2] of the same molecule?
A: The IC50 was 0.6 nM.

Q: Which IC50 [2] does the source give for `CC(C)=CCCC(C)CC(O)c1c(O)c(Cl)c(C)c(C=O)c1O` (centres unmarked) [compound 220, 3-chloro-4,6-dihydroxy-5-(1-hydroxy-3,7-dimethyl-6-octenyl)-2-methylbenzaldehyde] here?
A: The IC50 was 20 nM.

Q: Which results are given for `CCCCCCCCCCCC(O)c1c(O)c(Cl)c(C)c(C=O)c1O` (centres unmarked) [196-12, 5-Chloro-2,4-dihydroxy-3-(1-hydroxydodecyl)-6-methylbenzaldehyde]?
A: Minimum Effective Concentration, Presence of Glycerin ([1]; 5×10^5/ml, 37° C., 24 hours): 1.5 µM; minimal effective concentration [1, 5]: 100 µM; IC50 [2]: 0.65 nM

Q: With `CCCCCCCCCC/C=C/c1c(O)c(Cl)cc(C=O)c1O` [203-12, 5-Chloro-3-(1-dodecenyl)-2,4-dihydroxybenzaldehyde] as the molecule, how does the IC50 [2] read?
A: The IC50 was 0.5 nM.

Q: And the melting point?
A: The melting point was 84 to 85 °C.

Q: Which results are given for `CCCCCCCC/C=C/c1c(O)c(Cl)c(C)c(C=O)c1O` [200-10, 5-Chloro-3-(1-decenyl)-2,4-dihydroxy-6-methylbenzaldehyde]?
A: Minimum Effective Concentration, Presence of Glycerin ([1]; 5×10^5/ml, 37° C., 24 hours): 0.8 µM; minimal effective concentration [1, 5]: 100 µM; IC50 [2]: 0.45 nM; melting point: 83 to 84 °C

Q: Which results are given for `CCCCCCC/C=C/c1c(O)c(Cl)c(C)c(C=O)c1O` [200-9, 5-chloro-2,4-dihydroxy-6-methyl-3-(1-nonenyl)benzaldehyde]?
A: Minimum Effective Concentration, Presence of Glycerin ([1]; 5×10^5/ml, 37° C., 24 hours): 0.8 µM; minimal effective concentration [1, 5]: 100 µM; IC50 [2]: 0.4 nM; melting point: 79.5 to 80.5 °C

Q: For `COc1c(Cl)c(C)c(C=O)c(O)c1C/C=C(\C)CC/C=C(\C)[C@@H]1CC(=O)C(C)(C)O1` [compound 211, 3-Chloro-6-hydroxy-4-methoxy-2-methyl-5-[(E,E)-3-methyl-7-(tetrahydro-5,5-dimethyl-4-oxo-2-furanyl)-2,6-octadienyl]benzaldehyde], which IC50 [2] is on record?
A: Its IC50 is 4 nM.

Q: Which results are given for `CCCCCCCCCCCC(O)c1c(O)c(Cl)cc(C=O)c1O` (centres unmarked) [202-12, 5-Chloro-2,4-dihydroxy-3-(1-hydroxydodecyl)benzaldehyde]?
A: IC50 [2]: 1.5 nM; melting point: 78 to 79 °C

Q: Which “absolute amounts of 50% inhibition” value [3] does the source give for `CCCC[C@H]1C(=O)O[C@H](C)[C@H](NC(=O)c2cccc(NC=O)c2O)C(=O)O[C@@H](C)[C@@H]1OC(=O)CC(C)C` [antimycin A3] here?
A: The value was 48,600 pmol/mg protein.

Q: Which results are given for `CCCCCCCCCc1c(O)c(Cl)c(C)c(C=O)c1O` [215-9, 3-Chloro-4,6-dihydroxy-2-methyl-5-nonylbenzaldehyde]?
A: IC50 [2]: 0.21 nM; melting point: 89 to 90 °C

Q: Which IC50 [2] does the source give for `Cc1c(Cl)c(O)c(CCC(C)CCCC(C)C)c(O)c1C=O` (racemic) [dl-218, 3-Chloro-5-(3,7-dimethyloctyl)-4,6-dihydroxy-2-methylbenzaldehyde] here?
A: Its IC50 is 0.4 nM.

Q: What about the melting point of the same molecule?
A: The melting point was 66 to 67 °C.

Q: For `C/C=C(C)/C=C/C=C/[C@H](OC)[C@@H](C)[C@@H](OC)[C@@H](C)CCc1oc2c(O)c(OC)cc(OC)c2c(=O)c1C` [stigmatellin], which “absolute amounts of 50% inhibition” value [3] is on record?
A: The value was 18,600 pmol/mg protein.

Q: For `CCCCCCCCCCCC(O)c1c(O)ccc(C=O)c1O` (centres unmarked) [201-12, 2,4-Dihydroxy-3-(1-hydroxydodecyl)benzaldehyde], which IC50 [2] is on record?
A: The IC50 was 300 nM.

Q: For `CCCCCCCCCCCC(O)c1c(O)c(Cl)cc(C(=O)OC)c1O` (centres unmarked), which melting point is on record?
A: Its melting point is 96 to 97 °C.

Q: What does the source list for `CCCCCCCCCC/C=C/c1c(O)c(Cl)c(C)c(C=O)c1O` [200-12, 5-Chloro-3-(1-dodecenyl)-2,4-dihydroxy-6-methylbenzaldehyde]?
A: Minimum Effective Concentration, Presence of Glycerin ([1]; 5×10^5/ml, 37° C., 24 hours): 1.5 µM; minimal effective concentration [1, 5]: 100 µM; IC50 [2]: 0.5 nM

Q: With `CCCCCCCC/C=C/c1c(O)ccc(C=O)c1O` [compound 197, 3-(1-Decenyl)-2,4-dihydroxybenzaldehyde] as the molecule, how does the “Minimum Effective Concentration” value ([1]; 5×10^5/ml, 37° C., 24 hours) read?
A: The value was 50 µM.

Q: And the minimal effective concentration [1, 5]?
A: The minimal effective concentration was 50 µM.

Q: What about the IC50 [2] of the same molecule?
A: The IC50 was 120 nM.

Q: With `CCCCCCCCCCCC(O)c1c(O)cc(C)c(C=O)c1O` (centres unmarked) [195-12, 2,4-Dihydroxy-3-(1-hydroxydodecyl)-6-methylbenzaldehyde] as the molecule, how does the “Minimum Effective Concentration” value ([1]; 5×10^5/ml, 37° C., 24 hours) read?
A: The value was 25 µM.

Q: And the minimal effective concentration [1, 5]?
A: Its minimal effective concentration is 25 µM.

Q: What about the IC50 [2] of the same molecule?
A: Its IC50 is 40 nM.

Q: With `CO/C(=C/C(N)=O)[C@H](C)[C@H](/C=C/c1csc(-c2csc([C@@H](C)/C=C/C=C/C(C)C)n2)n1)OC` [myxothiazol] as the molecule, how does the “absolute amounts of 50% inhibition” value [3] read?
A: Its value is 21,500 pmol/mg protein.

Q: With `CCCCCCCCC(O)c1c(O)c(Cl)c(C)c(C=O)c1O` (centres unmarked) [196-9, 5-Chloro-2,4-dihydroxy-3-(1-hydroxynonyl)-6-methylbenzaldehyde] as the molecule, how does the “Minimum Effective Concentration” value ([1]; 5×10^5/ml, 37° C., 24 hours) read?
A: Its value is 0.8 µM.

Q: What about the minimal effective concentration [1, 5] of the same molecule?
A: The minimal effective concentration was 50 µM.

Q: And the IC50 [2]?
A: Its IC50 is 0.5 nM.

Q: Which IC50 [2] does the source give for `C/C(=C\Cc1c(O)c(Cl)c(C)c(/C=N/O)c1O)CC/C=C(\C)[C@@H]1CC(=O)C(C)(C)O1` [compound 213, 5-[(E,E)-7-(3-Chloro-2,6-dihydroxy-5-hydroxyiminomethyl-4-methylphenyl)-1,5-dimethyl-1,5-heptadienyl]-4,5-dihydro-2,2-dimethyl-3(2H)-furanone] here?
A: The IC50 was 28 nM.

Q: And the melting point?
A: Its melting point is 102 to 103 °C.

Q: Which “Minimum Effective Concentration” value ([1]; 5×10^5/ml, 37° C., 24 hours) does the source give for `C/C(=C\Cc1c(O)c(Cl)c(C)c(C=O)c1O)CC/C=C(\C)[C@@H]1CC(=O)C(C)(C)O1` [AF, ascofuranone, reference compound] here?
A: Its value is 0.2 µM.

Q: What about the minimal effective concentration ([1]; 24 h) of the same molecule?
A: Its minimal effective concentration is 200 µM.

Q: What about the “inhibition of the glycerol-3-phosphate oxidation system of trypanosome” value [4] of the same molecule?
A: The value was “very low concentration of the order of nM”.

Q: For `CCCCCCCCCC/C=C/c1c(O)cc(C)c(C=O)c1O` [compound 198, 3-(1-Dodecenyl)-2,4-dihydroxy-6-methylbenzaldehyde], which “Minimum Effective Concentration” value ([1]; 5×10^5/ml, 37° C., 24 hours) is on record?
A: Its value is 50 µM.

Q: What about the minimal effective concentration [1, 5] of the same molecule?
A: Its minimal effective concentration is 50 µM.

Q: What about the IC50 [2] of the same molecule?
A: The IC50 was 16 nM.

Q: And the melting point?
A: Its melting point is 103 to 105 °C.

Q: With `Cc1c(Cl)c(O)c(CCC(C)CCCC(C)[C@@H]2CC(=O)C(C)(C)O2)c(O)c1C=O` (mixture of isomers) [compound 212, 3-Chloro-4,6-dihydroxy-2-methyl-5-[3-methyl-7-(tetrahydro-5,5-dimethyl-4-oxo-2-furanyl)octyl]-benzaldehyde] as the molecule, how does the IC50 [2] read?
A: Its IC50 is 0.3 nM.

Q: With `CCCCCCCCC(O)c1c(O)cc(C)c(C=O)c1O` (centres unmarked) [195-9, 2,4-Dihydroxy-3-(1-hydroxynonyl)-6-methylbenzaldehyde] as the molecule, how does the “Minimum Effective Concentration” value ([1]; 5×10^5/ml, 37° C., 24 hours) read?
A: The value was 25 µM.

Q: And the minimal effective concentration [1, 5]?
A: Its minimal effective concentration is 25 µM.

Q: And the IC50 [2]?
A: The IC50 was 30 nM.

Q: For `CCCCCCCCCC(O)c1c(O)cc(C)c(C=O)c1O` (centres unmarked) [195-10, 2,4-Dihydroxy-3-(1-hydroxydecyl)-6-methylbenzaldehyde], which “Minimum Effective Concentration” value ([1]; 5×10^5/ml, 37° C., 24 hours) is on record?
A: The value was 25 µM.

Q: And the minimal effective concentration [1, 5]?
A: Its minimal effective concentration is 25 µM.

Q: And the IC50 [2]?
A: Its IC50 is 35 nM.

Q: With `CCCCC/C=C/c1c(O)c(Cl)c(C)c(C=O)c1O` [200-7, 5-Chloro-3-(1-heptenyl)-2,4-dihydroxy-6-methylbenzaldehyde] as the molecule, how does the melting point read?
A: The melting point was 96 to 97 °C.

Q: With `Cc1c(Cl)c(O)c(/C=C/C(C)CCCC(C)C)c(O)c1C=O` (racemic) [dl-223, 3-Chloro-5-(3,7-dimethyl-1-octenyl)-4,6-dihydroxy-2-methylbenzaldehyde] as the molecule, how does the IC50 [2] read?
A: Its IC50 is 1.1 nM.

Reference: US7622598B2, “Phenol derivatives and antitrypanosoma preventive/therapeutic agent comprising the same as active ingredient” (aRigen Pharmaceuticals, Inc., priority 2003, dated 2009)
